Experimental data reported in paper PMC11250742, “Preclinical evaluation of CXCR4 peptides for targeted radionuclide therapy in glioblastoma” (EJNMMI Radiopharmacy and Chemistry, 2024).
Where a SMILES comes first, the peptide text is derived from it. Bridges are numbered along the chain shown (N, C = ends). [ ]: non-standard residue; d: D form. The star is where a group is joined. DOTA = O=C(O)CN1CCN(CC(=O)O)CCN(CC(=O)*)CCN(CC(=O)O)CC1; 2Nal = N[C@@H](Cc1ccc2ccccc2c1)C(=O)O; Cit = NC(=O)NCCC[C@H](N)C(=O)O

Experiments:
CXCR4 [1] = biological target: T1, CXCR4 (Homo sapiens, UniProt P61073); assay: Saturation binding assay on U87-CXCR4 + cells; settings: 0.1–1000 nM, 4 h, 37 °C; NSB with 100 µM AMD11070; N = 2
T1 construct: expressed in transfected cells; host or cells: U87-MG (U87-CXCR4+), kept under blasticidin selection
T1 sequence (P61073 whole entry): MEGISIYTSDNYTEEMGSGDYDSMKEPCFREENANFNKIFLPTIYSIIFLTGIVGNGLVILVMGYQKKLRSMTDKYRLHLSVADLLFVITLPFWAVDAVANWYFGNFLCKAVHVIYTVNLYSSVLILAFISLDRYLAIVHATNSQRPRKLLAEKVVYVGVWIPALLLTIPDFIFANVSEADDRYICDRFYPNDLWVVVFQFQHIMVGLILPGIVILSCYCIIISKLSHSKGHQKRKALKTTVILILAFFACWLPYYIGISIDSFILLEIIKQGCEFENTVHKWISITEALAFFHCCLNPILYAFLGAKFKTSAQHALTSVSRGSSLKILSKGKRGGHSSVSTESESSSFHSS
Protocol: In the saturation binding assays, U87-CXCR4 + cells were seeded in 24-well plates and allowed to adhere. The night before the experiment, complete media was replaced with media containing 2% FBS. To determine the total binding, cells were treated with a mixture of each radiolabelled peptide (at final concentrations ranging from 0.1 to 1000 nM, corresponding to activity concentrations ranging from 0.005 to 50 MBq/mL) with 0.2% dimethyl sulfoxide (DMSO, vehicle). Non-specific binding (NSB) was verified by treating cells with a mixture of each radiolabelled peptide with 100 µM of AMD11070, a potent CXCR4 antagonist.
After 4 h of incubation at 37 °C and 5% CO2, the unbound fraction was collected in gamma counter tubes, and the cells were washed twice with PBS. The wash fractions were added to the same gamma counter tubes. Next, cells were lysed by incubation with 1 M NaOH for 30 min at room temperature (RT). After collecting the lysed cell fractions, two washes with 1 M NaOH were performed, and added to the same fractions, corresponding to the total bound fractions.
The activities of all collected fractions were measured in an automated gamma counter. […]
Statistical analyses and data plotting were done using GraphPad Prism 10. […] Statistical significance was evaluated with one-way ANOVA followed by post-hoc comparisons with the untreated cells using Dunnett’s test. […]

CXCR4 [2] = biological target: T1, CXCR4; assay: In vitro autoradiography saturation binding on U87-CXCR4 + tumour slices; settings: sections of subcutaneous U87-CXCR4 + tumours; 0.1–1000 nM; NSB with 100 µM AMD11070; N = 3

## N=C(N)NCCC[C@@H]1NC(=O)[C@@H]2CSSC[C@H](NC(=O)[C@H](Cc3ccc4ccccc4c3)NC(=O)[C@H](CCCNC(=N)N)NC(=O)[C@H](CCCNC(=N)N)NC(=O)[C@H]3CCCN3C(=O)CNC1=O)C(=O)N[C@@H](Cc1ccc(O)cc1)C(=O)N[C@@H](CCC(N)=O)C(=O)N[C@@H](CCCCNC(=O)CN1CCN(CC(=O)O)CCN(CC(=O)O)CCN(CC(=O)O)CC1)C(=O)N1CCC[C@@H]1C(=O)N1CCC[C@H]1C(=O)N[C@@H](Cc1ccc(O)cc1)C(=O)N[C@@H](CCCNC(=N)N)C(=O)N[C@@H](CCCNC(N)=O)C(=O)N2 [[^177Lu]Lu-DOTA-POL3026, metal not drawn] (cyclo(RR[2Nal]CYQK(DOTA)[dP]PYR[Cit]CRG[dP]); disulfide 4-13)
CXCR4 [1]
  Kd: 21.8 nM
CXCR4 [2]
  Kd: 52 nM
